The values below come from US11814681B2 (priority 2017, dated 2023).

Several values for one entry are separate records, joined by “and”; a condition that tells them apart may be missing. Equal values may be shown once.

For series [1] the following is noted: in vivo; cited from earlier work.
The conditions of series [2]: human, in vivo.
The subject of the next series is schizophrenia patients. As to conditions: human, in vivo.
The conditions of series [3]: human, in vivo. This is another data set of the same source.
The conditions of series [4]: human, in vivo. The source holds these as a separate data set.
The subject of series [5] is patients (Met allele carriers, Val/Val). Also on record: species or system human. As to conditions: in vivo.
For series [6] the test system is unchanged. As to conditions: in vivo; cited from earlier work.

Regarding `CCO` [Ethanol], in series [1], the “effect on circulating proline levels” value is “increases”.

With `CCCC(CCC)C(=O)O` [VPA, 2-propylpentanoic acid], the “fasting plasma proline, mean ± SD” value in series [2] was 299.29±94.76. In the series on schizophrenia patients, the “difference in SANS total score, Val/Val versus Val/Met and Met/Met (regression coefficient)” value is listed as −12.17; the “β (95% CI), bivariate association of treatment with total SANS score” value was −0.578 (−7.157, 6.001). For the same compound, the “fasting plasma proline versus patients who did not receive the drug” value in series [3] is “significantly higher”. Besides, in series [4], the “fasting L-serine level” value came out at 117 µM and the fasting glycine level worked out at 361 µM. Besides, the “patients showing improvement in negative symptoms after treatment onset” value in series [5] was 2 out of 9 and 5 out of 7. The “effect on circulating proline” value in series [1] was “upregulates”. Further, the “blood level considered the lower end of the therapeutic range” value in series [6] was 50 µg/mL.
